# Target: BCL2 (Homo sapiens (Human), UniProt P10415)
# Assay: Molecular level activity test of anti-apoptotic protein BCL2 (HTRF, binding to Bim peptide)
# Conditions: HTRF, binding of BCL2 to Bim peptide; read-out: BCL2 nM (inhibitory activity, IC50)
# How it was run: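 Disruption of the BCL2/Bim peptide interaction is detected by homogeneous time-resolved fluorescence, using anti-His and streptavidin-XL665 reagents against His-tagged protein and biotin-tagged peptide. Compound exposure lasts 1 h before reagent addition; plates then sit 4 h at room temperature.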
# BCL2, sequence (P10415 whole entry): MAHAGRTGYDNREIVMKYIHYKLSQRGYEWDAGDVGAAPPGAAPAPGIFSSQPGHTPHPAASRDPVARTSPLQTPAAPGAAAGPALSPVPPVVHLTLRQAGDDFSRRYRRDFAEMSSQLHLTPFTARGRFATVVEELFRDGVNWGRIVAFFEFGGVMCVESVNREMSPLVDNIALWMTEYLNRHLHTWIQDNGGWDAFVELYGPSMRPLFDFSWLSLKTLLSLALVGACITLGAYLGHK
row,SMILES,IC50 [nM]
1,"CC(C)c1ccccc1[C@@H]1CCCN1C1CC2(CCN(c3ccc(C(=O)NS(=O)(=O)c4cc([N+](=O)[O-])c(NCC5(F)CCOCC5)c5[nH]cnc45)c(N4CCCOc5nc6[nH]ccc6cc54)c3)CC2)C1 [compound 088, (S)-2-(3,4-dihydro-2H-pyrrolo[3′,2′:5,6]pyridino[2,3-b][1,4]oxazacyclohept-1 (7H)-yl)-N-((7-(((4-fluorotetrahydro-2H-pyran-4-yl)methyl)amino)-6-nitro-1H-benzo[d]imidazol-4-yl)sulfonyl)-4-(2-(2-(2-isopropylphenyl)pyrrolidin-1-yl)-7-azaspiro[3.5]non-7-yl)benzamide]",< 10
2,"COc1ccc(CN2CCN(C3CC4(C3)CN(c3cc(Oc5cnc6[nH]ccc6c5)c(C(=O)NS(=O)(=O)c5cc([N+](=O)[O-])c(NC[C@H]6CC[C@](C)(O)CC6)c6[nH]cnc56)cn3)C4)C(c3ccccc3C(C)C)C2)cc1 (some centres unmarked) [compound 068, 4-((1H-pyrrolo[2,3-b]pyrid-5-yl)oxy)-N-((7-((((1r,4r)-4-hydroxy-4-methylcyclohexyl)methyl)amino)-6-nitro-1H-benzo[d]imidazol-4-yl)sulfonyl)-6-(6-(2-(2-isopropylphenyl)-4-(4-methoxybenzyl)piperazin-1-yl)-2-azaspiro[3.3]hept-2-yl) nicotinamide]",< 10
3,"CC(C)c1ccccc1[C@@H]1CCCN1C1CC2(CCN(c3ccc(C(=O)NS(=O)(=O)c4cc([N+](=O)[O-])c(NCC5(F)CCN(C6COC6)CC5)c5[nH]cnc45)c(N4CCOc5nc6[nH]ccc6cc54)c3)CC2)C1 [compound 080, (S)-2-(2,3-dihydropyrrolo[3′,2′:5,6]pyridino[2,3-b][1,4]oxazin-1 (6H)-yl)-N-((7-(((4-fluoro-1-(oxocyclobut-3-yl)piperid-4-yl)methyl)amino)-6-nitro-1H-benzo[d]imidazol-4-yl)sulfonyl)-4-(2-(2-(2-isopropylphenyl)pyrrolidin-1-yl)-7-azaspiro[3.5]non-7-yl)benzamide]",< 10
4,"CC(C)c1ccccc1C1CN(C(C)C)CCN1C1CC2(C1)CN(c1ccc(C(=O)NS(=O)(=O)c3cc([N+](=O)[O-])c(NCC4(F)CCN(C(C)C)CC4)c4[nH]cnc34)c(Oc3cnc4[nH]ccc4c3)c1)C2 (centres unmarked) [compound 042, 2-((1H-pyrrolo[2,3-b]pyrid-5-yl)oxy)-N-((7-(((4-fluoro-1-isopropylpiperid-4-yl)methyl)amino)-6-nitro-1H-benzo[d]imidazol-4-yl)sulfonyl)-4-(6-(4-isopropyl-2-(2-isopropylphenyl)piperazin-1-yl)-2-azaspiro[3.3]hept-2-yl)benzamide]",< 10
5,"COc1ccc(CN2CCN(C3CC4(CCN(c5cc(Oc6cnc7[nH]ccc7c6)c(C(=O)NS(=O)(=O)c6cc([N+](=O)[O-])c(NCC7(F)CCOCC7)c7[nH]cnc67)cn5)CC4)C3)C(c3ccccc3C(C)C)C2)cc1 (centres unmarked) [compound 077, 4-((1H-pyrrolo[2,3-b]pyrid-5-yl)oxy)-N-((7-(((4-fluorotetrahydro-2H-pyran-4-yl)methyl)amino)-6-nitro-1H-benzo[d]imidazol-4-yl)sulfonyl)-6-(2-(2-(2-isopropylphenyl)-4-(4-methoxybenzyl)piperazin-1-yl)-7-azaspiro[3.5]non-7-yl) nicotinamide]",< 10
6,"CC(C)c1ccccc1[C@@H]1CCCN1C1CC2(CCN(c3cc(Oc4cnc5[nH]ccc5c4)c(C(=O)NS(=O)(=O)c4cc([N+](=O)[O-])c(NCC5(F)CCOCC5)c5scnc45)cc3F)CC2)C1 [compound 104, (S)-2-((1H-pyrrolo[2,3-b]pyrid-5-yl)oxy)-5-fluoro-N-((7-(((4-fluorotetrahydro-2H-pyran-4-yl)methyl)amino)-6-nitrobenzo[d]thiazol-4-yl)sulfonyl)-4-(2-(2-(2-isopropylphenyl)pyrrolidin-1-yl)-7-azaspiro[3.5]non-7-yl)benzamide]",< 10
7,"COc1ccc(CN2CCN(C3CC4(CCN(c5cc(Oc6cnc7[nH]ccc7c6)c(C(=O)NS(=O)(=O)c6cc([N+](=O)[O-])c(NCC7(F)CCOCC7)c7ocnc67)cc5F)CC4)C3)[C@H](c3ccccc3C(C)C)C2)cn1 [compound 127, (R)-2-((1H-pyrrolo[2,3-b]pyrid-5-yl)oxy)-5-fluoro-N-((7-(((4-fluorotetrahydro-2H-pyran-4-yl)methyl)amino)-6-nitrobenzo[d]oxazol-4-yl)sulfonyl)-4-(2-(2-(2-isopropylphenyl)-4-((6-methoxypyrid-3-yl)methyl)piperazin-1-yl)-7-azaspiro[3.5]non-7-yl)benzamide]",< 10
8,"COc1ccc(CN2CCN(C3CC4(CCN(c5ccc(C(=O)NS(=O)(=O)c6cc([N+](=O)[O-])c(NCC7(F)CCOCC7)c7c6OC(C)(C)O7)c(Oc6cnc7[nH]ccc7c6)c5)CC4)C3)[C@H](c3ccccc3C(C)C)C2)cc1 [compound 162, (R)-2-((1H-pyrrolo[2,3-b]pyrid-5-yl)oxy)-N-((7-(((4-fluorotetrahydro-2H-pyran-4-yl)methyl)amino)-2,2-dimethyl-6-nitrobenzo[d][1,3]dioxocyclopent-4-yl)sulfonyl)-4-(2-(2-(2-isopropylphenyl)-4-(4-methoxybenzyl)piperazin-1-yl)-7-azaspiro[3.5]non-7-yl)benzamide]",< 10
9,COc1ccc(CN2CCN(C3CC4(CCN(c5ccc(C(=O)NS(=O)(=O)c6cc([N+](=O)[O-])c(NCC7(F)CCOCC7)c7c6OCCO7)c(Oc6cnc7[nH]ccc7c6)c5)CC4)C3)[C@H](c3ccccc3C(C)C)C2)cc1 [compound 181],< 10
10,"COc1ccc(CN2CCN(C3CC4(CCN(c5cc(Oc6cnc7[nH]ccc7c6)c(C(=O)NS(=O)(=O)c6cc([N+](=O)[O-])c(NCC7(F)CCOCC7)c7scnc67)cc5F)CC4)C3)[C@H](c3ccccc3C(C)C)C2)cn1 [compound 128, (R)-2-((1H-pyrrolo[2,3-b]pyrid-5-yl)oxy)-5-fluoro-N-((7-(((4-fluorotetrahydro-2H-pyran-4-yl)methyl)amino)-6-nitrobenzo[d]thiazol-4-yl)sulfonyl)-4-(2-(2-(2-isopropylphenyl)-4-((6-methoxypyrid-3-yl)methyl)piperazin-1-yl)-7-azaspiro[3.5]non-7-yl)benzamide]",< 10
11,"COc1ccc(CN2CCN(C3CC4(CCN(c5cc(Oc6cnc7[nH]cc(F)c7c6)c(C(=O)NS(=O)(=O)c6ccc(NCC7(F)CCN(C(C)C)CC7)c([N+](=O)[O-])c6)cn5)CC4)C3)C(c3ccccc3C(C)C)C2)cc1 (centres unmarked) [compound 061, N-((4-(((4-fluoro-1-isopropylpiperid-4-yl)methyl)amino)-3-nitrophenyl)sulfonyl)-4-((3-fluoro-1H-pyrrolo[2,3-b]pyrid-5-yl)oxy)-6-(2-(2-(2-isopropylphenyl)-4-(4-methoxybenzyl)piperazin-1-yl)-7-azaspiro[3.5]non-7-yl) nicotinamide]",< 10
12,"CC(C)c1ccccc1[C@@H]1CN(Cc2ccc(F)c(F)c2)CCN1C1CC2(CCN(c3ccc(C(=O)NS(=O)(=O)c4cc([N+](=O)[O-])c(NCC5(F)CCOCC5)c5c4OCO5)c(Oc4cnc5[nH]ccc5c4)c3)CC2)C1 [compound 168, (R)-2-((1H-pyrrolo[2,3-b]pyrid-5-yl)oxy)-4-(2-(4-(3,4-difluorobenzyl)-2-(2-isopropylphenyl)piperazin-1-yl)-7-azaspiro[3.5]non-7-yl)-N-((7-(((4-fluorotetrahydro-2H-pyran-4-yl)methyl)amino)-6-nitrobenzo[d][1,3]dioxocyclopent-4-yl)sulfonyl)benzamide]",< 10
13,"CC(C)c1ccccc1[C@@H]1CCCN1C1CC2(CCN(c3ccc(C(=O)NS(=O)(=O)c4cc([N+](=O)[O-])c(NC[C@H]5CC[C@](C)(O)CC5)c5c4OCO5)c(Oc4cnc5[nH]ccc5c4)c3)CC2)C1 [compound 158, 2-((1H-pyrrolo[2,3-b]pyrid-5-yl)oxy)-N-((7-((((1r, 4r)-4-hydroxy-4-methylcyclohexyl)methyl)amino)-6-nitrobenzo[d][1,3]dioxocyclopent-4-yl)sulfonyl)-4-(2-((S)-2-(2-isopropylphenyl)pyrrolidin-1-yl)-7-azaspiro[3.5]non-7-yl)benzamide]",< 10
14,"COc1ccc(CN2CCN(C3CC4(CCN(c5cc(Oc6cnc7[nH]ccc7c6)c(C(=O)NS(=O)(=O)c6cc([N+](=O)[O-])c(NCC7CCOCC7)c7scnc67)cc5F)CC4)C3)[C@H](c3ccccc3C(C)C)C2)cc1 [compound 122, (R)-2-((1H-pyrrolo[2,3-b]pyrid-5-yl)oxy)-5-fluoro-4-(2-(2-(2-isopropylphenyl)-4-(4-methoxybenzyl)piperazin-1-yl)-7-azaspiro[3.5]non-7-yl)-N-((6-nitro-7-(((tetrahydro-2H-pyran-4-yl)methyl)amino)benzo[d]thiazol-4-yl)sulfonyl)benzamide]",< 10
15,"COc1ccc(CN2CCN(C3CC4(CCN(c5cc(Oc6cnc7[nH]ccc7c6)c(C(=O)NS(=O)(=O)c6cc([N+](=O)[O-])c(NCC7(F)CCN(C(C)C)CC7)c7[nH]cnc67)cn5)CC4)C3)C(c3ccccc3C(C)C)C2)cc1 (centres unmarked) [compound 069, 4-((1H-pyrrolo[2,3-b]pyrid-5-yl)oxy)-N-((7-(((4-fluoro-1-isopropylpiperid-4-yl)methyl)amino)-6-nitro-1H-benzo[d]imidazol-4-yl)sulfonyl)-6-(2-(2-(2-isopropylphenyl)-4-(4-methoxybenzyl)piperazin-1-yl)-7-azaspiro[3.5]non-7-yl) nicotinamide]",< 10
16,"CC(C)c1ccccc1[C@@H]1CCCN1C1CC2(CCN(c3ccc(C(=O)NS(=O)(=O)c4cc([N+](=O)[O-])c(NCC5(F)CCOCC5)c5[nH]cnc45)c(N4CCOc5nc6[nH]ccc6cc54)c3)CC2)C1 [compound 087, (S)-2-(2,3-dihydropyrrolo[3′,2′:5,6]pyridino[2,3-b][1,4]oxazin-1 (6H)-yl)-N-((7-(((4-fluorotetrahydro-2H-pyran-4-yl)methyl)amino)-6-nitro-1H-benzo[d]imidazol-4-yl)sulfonyl)-4-(2-(2-(2-isopropylphenyl)pyrrolidin-1-yl)-7-azaspiro[3.5]non-7-yl)benzamide]",< 10
17,COc1ccc(CN2CCN(C3CC4(CCN(c5cc(Oc6cnc7[nH]ccc7c6)c(C(=O)NS(=O)(=O)c6cc([N+](=O)[O-])c(NCC7(F)CCOCC7)c7c6ncc(=O)n7C)cc5F)CC4)C3)[C@H](c3ccccc3C(C)C)C2)cc1,< 10

# — patent US20250034135A1, “ANTI-APOPTOTIC PROTEIN BCL-2 INHIBITOR, PHARMACEUTICAL COMPOSITION AND USES THEREOF” (HANGZHOU HEALZEN THERAPEUTICS CO., LTD., priority 2021, published 2025)
